US5723484A, “Benzopyran compounds as 5-HT2C receptor antagonists” (Adir et Compagnie, priority 1994, dated 1998)

Legend:
5-HT2A receptors [1] = biological target: T1, 5-HT2A receptors (Rattus norvegicus, UniProt P14842); assay: In vitro affinity for the 5-HT2A receptors, rat frontal cortex/[3H]-ketanserin (1.0 nM); format: binding
T1 construct: rat frontal cortex; from tissue; host or cells: rat frontal cortex
Method: (§1) Measurement of the in vitro affinity for the 5-HT2C and 5-HT2A receptors
(§2) The procedures described for the studies of the binding to the 5-HT2A and 5-HT2C receptors are exactly those described by H. Canton et al. (Eur. J. Pharmacol., 191, 93, 1990) and M. J. Millan et al. (J. Pharmacol. Exp. Ther., 262, 451-463, 1992). For 5-HT2A : rat frontal cortex/[^3 H]-ketanserin (1.0 nM). For 5-HT2C : pig […] plexus/[^3 H]-mesulergine (1.0 nM). The 50% inhibitory doses (ID50) are determined by regression analysis and the pKi values are calculated as follows: [formula] [L]=concentration of the Kd-Kd=dissociation constant Results

5-HT2A receptors [2] = conditions: literature; cited from earlier work
5-HT2C receptors [3] = biological target: T2, 5-HT2C receptors (Sus scrofa, UniProt K7GSR7); assay: biochemical; format: binding, pig
T2 construct: pig cerebral plexus; from tissue; host or cells: pig cerebral plexus (own knowledge: choroid plexus)
T2 sequence (K7GSR7 1-457): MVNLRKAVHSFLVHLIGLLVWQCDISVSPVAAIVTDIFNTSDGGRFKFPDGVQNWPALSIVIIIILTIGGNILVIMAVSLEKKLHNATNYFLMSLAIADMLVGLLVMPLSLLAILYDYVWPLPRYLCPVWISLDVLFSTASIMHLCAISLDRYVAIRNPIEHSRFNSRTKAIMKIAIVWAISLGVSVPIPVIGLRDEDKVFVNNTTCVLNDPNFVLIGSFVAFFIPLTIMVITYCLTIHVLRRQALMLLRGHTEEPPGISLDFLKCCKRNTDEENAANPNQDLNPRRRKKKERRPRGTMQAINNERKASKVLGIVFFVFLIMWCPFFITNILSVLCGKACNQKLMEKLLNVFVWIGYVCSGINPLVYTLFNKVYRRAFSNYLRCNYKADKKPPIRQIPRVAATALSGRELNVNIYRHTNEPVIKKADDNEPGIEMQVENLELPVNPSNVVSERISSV
Method: as §1, §2

5-HT2C receptors [4] = conditions: literature; cited from earlier work
patients = conditions: clinical results in patients, literature; cited from earlier work

T1 sequence (P14842 whole entry): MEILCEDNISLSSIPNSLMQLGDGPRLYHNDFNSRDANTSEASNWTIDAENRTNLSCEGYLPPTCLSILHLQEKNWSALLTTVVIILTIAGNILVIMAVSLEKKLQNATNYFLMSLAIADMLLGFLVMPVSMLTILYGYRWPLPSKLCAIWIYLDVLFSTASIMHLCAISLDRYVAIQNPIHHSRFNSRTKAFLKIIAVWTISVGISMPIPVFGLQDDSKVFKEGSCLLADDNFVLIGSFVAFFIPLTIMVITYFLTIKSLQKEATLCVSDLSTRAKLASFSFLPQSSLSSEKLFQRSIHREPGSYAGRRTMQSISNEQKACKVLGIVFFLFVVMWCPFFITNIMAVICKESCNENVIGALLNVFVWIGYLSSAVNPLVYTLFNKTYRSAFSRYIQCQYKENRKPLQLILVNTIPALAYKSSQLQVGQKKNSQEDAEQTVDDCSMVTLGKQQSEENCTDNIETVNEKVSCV

Row | SMILES | affinity for the 5-HT2A sites/receptors (5-HT2A receptors [1]) | action at 5-HT2A receptors (5-HT2A receptors [2]) | affinity for the 5-HT2C receptors (5-HT2C receptors [3]) | Ki (5-HT2C receptors [3]; 5-HT2C Ki (nM), pig cerebral plexus, [3H]-mesulergine 1.0 nM, average of two to four determinations) [nM] | Ki (5-HT2C receptors [3]; affinity for the 5-HT2C receptors, of the order of) [nM] | Ki (5-HT2A receptors [1]; rat frontal cortex, [3H]-ketanserin 1.0 nM, average of two to four determinations) [nM] | action at 5-HT2C receptors (5-HT2C receptors [4]) | anxiogenic properties and exacerbation of psychiatric states (patients)
1 | COc1cccc([C@H](O)C2CCN(CCc3ccc(F)cc3)CC2)c1OC [MDL 100,907, reference compound] | very strong affinity | selective 5-HT2A antagonist | – | – | – | – | – | –
2 | Cn1ccc2cc(NC(=O)Nc3cccnc3)ccc21 [SB 200,646, reference compound] | weak affinity | – | modest affinity | 204 | ~200 | 1320 | selective 5-HT2C antagonist | –
3 | Clc1cccc(N2CCNCC2)c1 [mCPP] | – | 5-HT2A antagonist | – | – | – | – | 5-HT2C agonist | pronounced anxiogenic properties and which exacerbates depressive, aggressive and psychotic states in patients
